From ChEMBL document CHEMBL1681729, “2-aminomethylphenylamine as a novel scaffold for factor Xa inhibitor” (Bioorg Med Chem, 2011)
Values after ≈ are worked out from the molar mass of the structure shown.

Key:
[1] = target: Coagulation factor X (Homo sapiens, UniProt P00742); assay: Inhibition of factor 10a by S2222 chromogenic substrate assay by chromogenic assay
[2] = Solubility of the compound in Japanese Pharmacopoeia First Fluid of pH 6.8 by HPLC; type: physicochemical
[3] = Distribution coefficient, log D of the compound at pH 7.4 by LC-MS; type: physicochemical; details: octanol/water
[4] = Solubility of the compound in Japanese Pharmacopoeia First Fluid of pH 1.2 by HPLC; type: physicochemical
[5] = system: Plasma; assay: Anticoagulant activity in human plasma assessed as concentration required to double prothrombin time; type: functional
[6] = AUC (0 to 24 hrs) in serum of cynomolgus monkey at 1 mg/kg, po after 0.5 to 24 hrs; type: ADME, organism-based, Macaca fascicularis; design: time < 24 hr, dose 1 mg/kg, route oral
[7] = Half life in serum of cynomolgus monkey at 1 mg/kg, po after 0.5 to 24 hrs; type: ADME, organism-based, Macaca fascicularis; design: dose 1 mg/kg, route oral
[8] = Cmax in serum of cynomolgus monkey at 1 mg/kg, po after 0.5 to 24 hrs by LC/MS/MS coupled with HPLC; type: ADME, organism-based, Macaca fascicularis; design: dose 1 mg/kg, route oral
[9] = Tmax in serum of cynomolgus monkey at 1 mg/kg, po after 0.5 to 24 hrs; type: ADME, organism-based, Macaca fascicularis; design: dose 1 mg/kg, route oral
[10] = system: Rattus norvegicus; assay: Inhibition of factor 10a in overnight fasted Wistar rat plasma at 10 mg/kg, po after 2 hrs by S2222 chromogenic substrate assay; type: functional
[11] = system: Rattus norvegicus; assay: Inhibition of factor 10a in overnight fasted Wistar rat plasma at 10 mg/kg, po after 1 hr by S2222 chromogenic substrate assay; type: functional
[12] = system: Rattus norvegicus; assay: Inhibition of factor 10a in overnight fasted Wistar rat plasma at 10 mg/kg, po after 0.5 hrs by S2222 chromogenic substrate assay; type: functional
[13] = system: Rattus norvegicus; assay: Inhibition of factor 10a in overnight fasted Wistar rat plasma at 10 mg/kg, po after 4 hrs by S2222 chromogenic substrate assay; type: functional

Sequence of Coagulation factor X (P00742 41-179 limits assumed): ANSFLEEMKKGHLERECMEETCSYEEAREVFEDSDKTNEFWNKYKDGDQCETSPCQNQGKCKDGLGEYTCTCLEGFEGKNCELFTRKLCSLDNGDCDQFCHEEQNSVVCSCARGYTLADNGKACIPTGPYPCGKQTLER
Sequence of Coagulation factor X (P00742 235-488 limits assumed): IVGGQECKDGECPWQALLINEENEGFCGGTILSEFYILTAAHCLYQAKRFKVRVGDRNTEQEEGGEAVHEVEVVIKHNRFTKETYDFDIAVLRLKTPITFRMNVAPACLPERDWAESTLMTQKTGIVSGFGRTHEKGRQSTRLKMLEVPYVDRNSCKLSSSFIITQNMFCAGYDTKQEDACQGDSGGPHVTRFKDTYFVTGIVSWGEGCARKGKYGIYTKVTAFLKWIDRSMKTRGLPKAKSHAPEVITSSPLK

SMILES	IC50 [1]	solubility [2]	logD [3]	solubility [4]	Activity [5]	also measured
CN1CCc2nc(C(=O)Nc3ccccc3CNC(=O)c3cccc(Cl)c3)sc2C1	1620 nM	160 µg/mL (≈ 363 µM)	3.3	680 µg/mL (≈ 1540 µM)		
CN1CCc2nc(C(=O)Nc3ccccc3CNC(=O)c3ccc(Cl)[nH]3)sc2C1	> 10000 nM	33 µg/mL (≈ 76.8 µM)	3.1	> 810 µg/mL		
CN1CCc2nc(C(=O)Nc3ccccc3CNC(=O)c3cc(Cl)ccn3)sc2C1	4150 nM	150 µg/mL (≈ 339 µM)	2.7	760 µg/mL (≈ 1720 µM)		
CN1CCc2nc(C(=O)Nc3ccccc3CNC(=O)c3ccc(Cl)s3)sc2C1		17 µg/mL (≈ 38 µM)	3.3	150 µg/mL (≈ 336 µM)		
CN1CCc2nc(C(=O)NCc3ccccc3NC(=O)c3ccc(Cl)s3)sc2C1	5680 nM					
CN1CCc2nc(C(=O)Nc3ccccc3CC(=O)Nc3ccc(Cl)cn3)sc2C1	623 nM	100 µg/mL (≈ 226 µM)	2.8	600 µg/mL (≈ 1360 µM)	17 µM	
CN1CCc2nc(C(=O)Nc3ccncc3CNC(=O)c3ccc(Cl)s3)sc2C1	12 nM	> 4.9 µg/mL	3.3	880 µg/mL (≈ 1960 µM)	1.4 µM	
CN1CCc2nc(C(=O)Nc3ccccc3CNC(=O)c3ccc(Cl)s3)sc2C1.Cl						AUC(0-t) at 24 h [6]: 697 ng·h/mL; half-life [7]: 228 min; Cmax [8]: 83.7 ng/mL; Tmax [9]: 30 min
CN1CCc2nc(C(=O)N[C@@H]3CCCC[C@@H]3CNC(=O)c3ccc(Cl)s3)sc2C1 (relative stereo)	27 nM	290 µg/mL (≈ 640 µM)	3.7	800 µg/mL (≈ 1770 µM)	3.4 µM	
CN1CCc2nc(C(=O)Nc3cnccc3CNC(=O)c3ccc(Cl)s3)sc2C1	13 nM	> 590 µg/mL	2.6	> 590 µg/mL	1.8 µM	
CC(C)N1CCC(NC(=O)c2ccccc2CNC(=O)c2ccc(Cl)s2)CC1	1930 nM	> 820 µg/mL	1.4	810 µg/mL (≈ 1930 µM)		
CC(C)N1CCC(C(=O)Nc2ccccc2CNC(=O)c2ccc(Cl)s2)CC1	204 nM	> 680 µg/mL	1.5	> 680 µg/mL	5.2 µM	
CN1CCc2nc(C(=O)Nc3ccccc3CNC(=O)c3ccc(Cl)cn3)sc2C1	2480 nM	380 µg/mL (≈ 860 µM)	2.8	350 µg/mL (≈ 792 µM)		
CN1CCc2nc(C(=O)NCCCNC(=O)c3ccc(Cl)s3)sc2C1	93 nM				7.6 µM	
CN1CCc2nc(C(=O)Nc3cccnc3CNC(=O)c3ccc(Cl)s3)sc2C1	11 nM	67 µg/mL (≈ 150 µM)	2.8	890 µg/mL (≈ 1990 µM)	1 µM	
CN1CCc2nc(C(=O)Nc3ccccc3CNC(=O)c3ccc(Cl)cc3)sc2C1	642 nM	42 µg/mL (≈ 95.2 µM)	3.4	560 µg/mL (≈ 1270 µM)		
O=C(NCc1ccccc1C(=O)Nc1ccc(N2CCOCC2=O)cc1)c1ccc(Cl)s1	9 nM	120 µg/mL (≈ 255 µM)	2.5	140 µg/mL (≈ 298 µM)	1 µM	
CN1CCc2nc(NC(=O)c3ccccc3CNC(=O)c3ccc(Cl)s3)sc2C1	59 nM	100 µg/mL (≈ 224 µM)	2.9	> 640 µg/mL	2.3 µM	
CN1CCc2nc(C(=O)N[C@@H]3CCCC[C@H]3CNC(=O)c3ccc(Cl)s3)sc2C1 (relative stereo)	439 nM	440 µg/mL (≈ 971 µM)	3.5	> 600 µg/mL	17 µM	
O=C(Nc1ccccc1CNC(=O)c1ccc(Cl)s1)c1ccc(N2CCOCC2=O)cc1	4.1 nM	< 2.3 µg/mL	2.8	< 2.3 µg/mL	0.91 µM	inhibition in vivo at 10 mg/kg [10]: 12.7%; inhibition in vivo at 10 mg/kg [11]: 14.1%; inhibition in vivo at 10 mg/kg [12]: 17.1%; inhibition in vivo at 10 mg/kg [13]: 12.7%
CN1CCc2nc(C(=O)N3CCCC(CNC(=O)c4ccc(Cl)s4)C3)sc2C1 (stereo unspecified)	6830 nM					
CN1CCc2nc(C(=O)N3CCC(NC(=O)c4ccc(Cl)s4)CC3)sc2C1	1020 nM				>20 µM	
CN1CCc2nc(C(=O)Nc3ccccc3CNC(=O)c3cc(Cl)c[nH]3)sc2C1	48 nM	170 µg/mL (≈ 395 µM)	3.2	690 µg/mL (≈ 1600 µM)	2.2 µM	
CN1CCc2nc(C(=O)Nc3ncccc3CNC(=O)c3ccc(Cl)s3)sc2C1	18 nM	120 µg/mL (≈ 268 µM)	2.2	860 µg/mL (≈ 1920 µM)	1.5 µM	
